# Results taken from BigSolDB 2.1.
smiles,measurement,setting,value
C=C(C)[C@@H]1CC[C@]2(CO)CC[C@]3(C)[C@H](CC[C@@H]4[C@@]5(C)CC[C@H](O)C(C)(C)[C@@H]5CC[C@]43C)[C@@H]12,solubility (mole fraction),"in acetone, 278.2 K",0.000689
same,solubility (mole fraction),"in acetone, 288.2 K",0.00101
same,solubility (mole fraction),"in acetone, 298.2 K",0.0015
same,solubility (mole fraction),"in acetone, 308.2 K",0.00203
same,solubility (mole fraction),"in acetone, 318.2 K",0.00243
same,solubility (mole fraction),"in ethanol, 278.2 K",0.000842
same,solubility (mole fraction),"in ethanol, 288.2 K",0.00096
same,solubility (mole fraction),"in ethanol, 298.2 K",0.00107
same,solubility (mole fraction),"in ethanol, 308.2 K",0.00124
same,solubility (mole fraction),"in ethanol, 318.2 K",0.00135
